Test results as given in patent publication US4137313A, “2,5-Dihydro-1,2-thiazino(5,6-b)indole-3-carboxamide-1,1-dioxides and salts thereof” (Boehringer Ingelheim GmbH, priority 1977, dated 1979).

Columns and labels:
[1] = test system: platelet aggregation in platelet-enriched plasma of healthy humans; test: BORN-Test, collagen-induced platelet aggregation; assay type: cell-based; settings: Homo sapiens, vs control, read-out: % decrease in aggregation; for inhibition at 20 µM: 2 × 10^-5 Mol/liter; for inhibition at 2 µM: 2 × 10^-6 Mol/liter; for inhibition at 100 µM: 1 × 10^-4 Mol/liter; for inhibition at 10 µM: 1 × 10^-5 Mol/liter
Description: (a) BORN-Test, Collagen-Induced Aggregation
The platelet aggregation was measured according to the method of BORN and CROSS (J. Physiol. 170, pp. 397 [1964]) in platelet-enriched plasma of healthy humans. The decrease in the optical density of the platelet suspension after addition of collagen was measured and registered photometrically. From the angle of inclination of the density curve the rate of aggregation can be determined. […] The quantity of collagen was chosen so that it produced an irreversible control curve.
The indicated values refer to the optical density and signify the percentage change in the light transmission (=% decrease in aggregation) under the influence of the test compound in comparision to the control.
Commercial collagen manufactured by Hormon-Chemie, Munich, Germany, was used.

male and female mice = test: Determination of acute toxicity, oral administration; assay type: in vivo; settings: 1 000 mgm/kg oral, 10 mice; for Dead animals within observation period 1 day: within 1 day; for Dead animals within observation period 7 days: within 7 days; for Dead animals within observation period 14 days: within 14 days
Description: (b) Determination of Acute Toxicity
The acute toxicity was determined in male and female mice after oral administration of the test compound as a suspension in tylose.

Structure (SMILES): CN1C(C(=O)Nc2nccs2)=C(O)c2c(c3ccccc3n2C)S1(=O)=O [A, 2,5-dihydro-2,5-dimethyl-4-hydroxy-N-(2-thiazolyl)-1,2-thiazino[5,6-b]indole-3-carboxamide-1,1-dioxide]
- inhibition at 20 µM [1]: 96%
- inhibition at 2 µM [1]: 81%
- Dead animals within observation period 1 day (male and female mice): 0
- Dead animals within observation period 7 days (male and female mice): 0
- Dead animals within observation period 14 days (male and female mice): 0

Structure (SMILES): Cc1csc(NC(=O)C2=C(O)c3c(c4ccccc4n3C)S(=O)(=O)N2C)n1 [B, 2,5-dihydro-2,5-dimethyl-4-hydroxy-N-(4-methyl-2-thiazolyl)-1,2-thiazino[5,6-b]indole-3-carboxamide-1,1-dioxide]
- inhibition at 20 µM [1]: 100%
- inhibition at 2 µM [1]: 97%
- inhibition at 0.2 µM ([1]; 2 × 10^-7 Mol/liter): 42%
- Dead animals within observation period 1 day (male and female mice): 0
- Dead animals within observation period 7 days (male and female mice): 0
- Dead animals within observation period 14 days (male and female mice): 0

Structure (SMILES): Cc1nc(NC(=O)C2=C(O)c3c(c4ccccc4n3C)S(=O)(=O)N2C)sc1C [C, 2,5-dihydro-2,5-dimethyl-N-(4,5-dimethyl-2-thiazolyl)-4-hydroxy-1,2-thiazino[5,6-b]indole-3-carboxamide-1,1-dioxide]
- inhibition at 20 µM [1]: 89%
- inhibition at 2 µM [1]: 82%

Structure (SMILES): Cc1cccc(NC(=O)C2=C(O)c3c(c4ccccc4n3C)S(=O)(=O)N2C)n1 [D, 2,5-dihydro-2,5-dimethyl-4-hydroxy-N-(6-methyl-2-pyridyl)-1,2-thiazino[5,6-b]indole-3-carboxamide-1,1-dioxide]
- inhibition at 50 µM ([1]; 5 × 10^-5 Mol/liter): 86%
- inhibition at 5 µM ([1]; 5 × 10^-6 Mol/liter): 60%
- Dead animals within observation period 1 day (male and female mice): 0
- Dead animals within observation period 7 days (male and female mice): 0
- Dead animals within observation period 14 days (male and female mice): 0

Structure (SMILES): CN1C(C(=O)Nc2nccs2)=C(O)c2c(c3cc(Cl)ccc3n2C)S1(=O)=O [E, 8-chloro-2,5-dihydro-2,5-dimethyl-4-hydroxy-N-(2-thiazolyl)-1,2-thiazino[5,6-b]indole-3-carboxamide-1,1-dioxide]
- inhibition at 100 µM [1]: 100%
- inhibition at 10 µM [1]: 86%
- inhibition at 1 µM ([1]; 1 × 10^-6 Mol/liter): 27%
- Dead animals within observation period 1 day (male and female mice): 0
- Dead animals within observation period 7 days (male and female mice): 0
- Dead animals within observation period 14 days (male and female mice): 0

Structure (SMILES): COc1ccc2c(c1)c1c(n2C)C(O)=C(C(=O)Nc2ccccn2)N(C)S1(=O)=O [F, 2,5-dihydro-2,5-dimethyl-4-hydroxy-8-methoxy-N-(2-pyridyl)-1,2-thiazino[5,6-b]indole-3-carboxamide-1,1-dioxide]
- inhibition at 100 µM [1]: 85%
- inhibition at 10 µM [1]: 43%
